Literature values as cited in patent publication US8815282B1, “Commercial method for production of room temperature-liquid cetyl myristoleate” (priority 2005, dated 2014).

System: arthritis in mice
Details: pure CMO, Pharmacological Research 47 (2003) 43-47

## CCCC/C=C\CCCCCCCC(=O)OCCCCCCCCCCCCCCCC [CMO, cetyl myristoleate]
  incidence and severity of arthritis: significant reduction in the incidence and severity of arthritis
